In article PMC9132125 (Journal of natural products, 2016):

Experiments:
[1] = system: KCL-22 and T315I KCL-22 CML cell lines; test: Biological screening at 1 μM on the two CML cell lines; assay type: cell-based, human
[2] = system: T315I mutant KCL-22 CML cells; test: MTS cell viability assay, imatinib-resistant T315I mutant KCL-22 CML cells; assay type: cell-based, human; conditions: 48 h exposure
c-Src = c-Src (Homo sapiens, UniProt P12931); test: Kinase assay in vitro; assay type: biochemical; conditions: recombinant protein, 33P-ATP
GSK-3β = conditions: read-out: GSK-3β IC50; previously published; cited from earlier work

Chain of c-Src (P12931 whole entry): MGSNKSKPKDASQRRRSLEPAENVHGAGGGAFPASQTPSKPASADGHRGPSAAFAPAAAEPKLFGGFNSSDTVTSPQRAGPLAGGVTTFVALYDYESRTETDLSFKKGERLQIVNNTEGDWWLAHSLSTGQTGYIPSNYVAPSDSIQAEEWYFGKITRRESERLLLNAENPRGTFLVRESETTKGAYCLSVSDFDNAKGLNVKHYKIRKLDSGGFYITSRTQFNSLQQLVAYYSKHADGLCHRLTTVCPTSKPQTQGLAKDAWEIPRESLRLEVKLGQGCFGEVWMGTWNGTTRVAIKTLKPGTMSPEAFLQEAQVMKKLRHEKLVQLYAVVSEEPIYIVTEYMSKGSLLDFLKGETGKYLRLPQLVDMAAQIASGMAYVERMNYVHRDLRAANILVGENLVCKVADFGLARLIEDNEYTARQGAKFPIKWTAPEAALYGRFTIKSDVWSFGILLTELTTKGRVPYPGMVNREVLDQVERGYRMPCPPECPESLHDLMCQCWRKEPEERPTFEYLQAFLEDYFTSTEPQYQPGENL

Row | c-Src IC50 range (in words) (c-Src) | SMILES | cytotoxic activity in the screening (in words) [1] | T315I mutant KCL-22 IC50 range (in words) [2] | IC50 (GSK-3β) [µM]
1 |  | O=C1Nc2ccccc2/C1=C1/Nc2ccccc2C1=O [compound 1, Indirubin, reference compound] | loss of activity |  | 
2 |  | O=C1Nc2ccccc2/C1=C1/Nc2ccccc2/C1=N\O [compound 2] | loss of activity |  | 
3 | picomolar | CN(CCO/N=C1/C(=C2/C(=O)Nc3cc(Br)ccc32)Nc2ccccc21)CC(O)CO (stereo not drawn) [compound 17] |  | submicromolar range | 0.067
4 | picomolar | CN(CCO/N=C1/C(=C2/C(=O)Nc3cc(Br)ccc32)Nc2ccccc21)CC(O)CO.Cl (stereo not drawn) [compound 18] |  | submicromolar range | 0.023
5 | nanomolar | O=C1Nc2cc(Br)ccc2/C1=C1/Nc2ccccc2/C1=N\OCCN1CCCC1 [compound 19] |  | submicromolar range | 0.026
6 | nanomolar | Cl.O=C1Nc2cc(Br)ccc2/C1=C1/Nc2ccccc2/C1=N\OCCN1CCCC1 [compound 20] |  | submicromolar range | 0.054
7 | picomolar | Cl.Cl.O=C1Nc2cc(Br)ccc2/C1=C1/Nc2ccccc2/C1=N\OCCN1CCNCC1 [compound 22] |  | submicromolar range | 
8 | nanomolar | COCCN1CCN(CCO/N=C2/C(=C3/C(=O)Nc4cc(Br)ccc43)Nc3ccccc32)CC1 [compound 27] |  | submicromolar range | 0.11
9 | nanomolar | COCCN1CCN(CCO/N=C2/C(=C3/C(=O)Nc4cc(Br)ccc43)Nc3ccccc32)CC1.Cl.Cl [compound 28] |  | submicromolar range | 0.2
10 | picomolar | O=C1Nc2cc(Br)ccc2/C1=C1/Nc2ccccc2/C1=N\OCCN1CCN(CCOCCO)CC1 [compound 29] |  |  | 0.014
11 |  | Cl.Cl.O=C1Nc2cc(Br)ccc2/C1=C1/Nc2ccccc2/C1=N\OCCN1CCN(CCOCCO)CC1 [compound 30] |  | submicromolar range | 
12 |  | O=C1Nc2ccccc2/C1=C1/Nc2cc(Br)ccc2C1=O [compound 57] | inactive |  | 
13 |  | O=C1Nc2ccccc2/C1=C1/Nc2cc(Br)ccc2/C1=N\O [compound 58] | inactive |  | 
